Measured values reported in patent US20180015100A1, “COMBINATION PRODUCTS FOR THE TREATMENT OF BACTERIAL INFECTIONS AND METHODS OF PRODUCING OR DOSING OF SAME” (priority 2016, published 2018).
≈ marks a conversion by molar mass, not a printed value. Where two headings read alike, the source gives them in different places.

Experiments:
[1] = test system: 385 Escherichia coli and 126 Klebsiella pneumoniae isolates; assay: MIC, MIC50 and MIC90 by reference broth microdilution against 511 UTI/bloodstream isolates (USA and Europe 2014-2015); format: cell-based; conditions: 511 isolates; for MIC90: read-out: MIC90
[2] = test system: ESBL Klebsiella pneumoniae isolates; assay: Killing kinetics (time-kill); format: cell-based; conditions: 8X MIC
[3] = test system: ESBL Klebsiella pneumoniae isolates; assay: MIC against isolates analyzed in time-kill experiments; format: cell-based
[4] = test system: Escherichia coli isolates with an ESBL-phenotype; assay: In vitro MIC90 of a panel of approved antibiotics, US surveillance program; format: cell-based
[5] = test system: ESBL Escherichia coli isolates; assay: MIC against isolates analyzed in time-kill experiments; format: cell-based
[6] = test system: ESBL Escherichia coli isolates; assay: Killing kinetics (time-kill); format: cell-based; conditions: 8X MIC
[7] = test system: E. coli clinical isolate expressing the ESBL CTX-M-15; format: in vivo, mouse; conditions: 4 mg/kg, q4 hr
[8] = test system: Enterobacter cloacae isolates; assay: MIC of cephalosporins alone or with clavulanate/tazobactam; format: cell-based; conditions: clavulanate 2:1, tazobactam 4 μg/mL
[9] = test system: Klebsiella oxytoca isolates; assay: as above; format: cell-based; conditions: clavulanate 2:1, tazobactam 4 μg/mL
[10] = test system: Citrobacter freundii isolates; assay: as above; format: cell-based; conditions: clavulanate 2:1, tazobactam 4 μg/mL
[11] = test system: Klebsiella pneumoniae isolates; assay: as above; format: cell-based; conditions: clavulanate 2:1, tazobactam 4 μg/mL
[12] = test system: Escherichia coli isolates; assay: as above; format: cell-based; conditions: clavulanate 2:1, tazobactam 4 μg/mL
[13] = test system: Enterobacter aerogenes isolates; assay: as above; format: cell-based; conditions: Klebsiella aerogenes, clavulanate 2:1, tazobactam 4 μg/mL
clinical = conditions: human, in vivo
Protocol: The twice daily divided dose of study drug was administered approximately 12 hours apart. All subjects randomized to placebo received placebo oral capsules that were identical to study drug capsules and given according to the same dosing schedule and same quantity of capsules as subjects randomized to receive ceftibuten and clavulanate concurrently. All SDs, as well as the first daily dose of the MD period on […] were given while the subject was fasted. […] In addition, blood samples for assessment of trough (pre-dose) concentrations were collected on day 7, day 8, day 9, and alternate days thereafter through study day 17. […] Peak concentration (Cmax), time at which Cmax was observed (Tmax), area under the concentration-time curve to infinity (AUCinf), percent coefficient of variation (% CV), elimination half-life (T1/2), apparent total clearance of the drug from plasma after oral administration (CL/F), and apparent volume of distribution during terminal phase after non-intravenous administration (Vz/F) were determined. […] Similar to above, six subjects were randomized to receive active drug and two were randomized to receive placebo. […] Safety, tolerability and PK were assessed as described above.

[14] = Escherichia coli, E. coli (n = 124), ESBL-phenotype, read-out: MIC90
[15] = E. coli (n = 124), ESBL-phenotype

Molecule: CC1(C)S[C@@H]2[C@H](/N=C/N3CCCCCC3)C(=O)N2[C@H]1C(=O)O [Mecillinam]
- MIC50 [1]: 2 µg/mL (≈ 6.15 µM)
- MIC90 [1]: > 32 µg/mL

Molecule: C[C@@H](O)[C@H]1C(=O)N2C(C(=O)O)=C(S[C@@H]3CN[C@H](C(=O)N(C)C)C3)[C@H](C)[C@H]12 [Meropenem, meropenem]
- Change in Log10 CFU/mL From Inoculum (0 hr) ([2]; AKPN1159, 2 h): −2.64 Log10 CFU/mL
- Change in Log10 CFU/mL From Inoculum (0 hr) ([2]; AKPN1159, 4 h): −4.16 Log10 CFU/mL
- Change in Log10 CFU/mL From Inoculum (0 hr) ([2]; AKPN1159, 6 h): −4.73 Log10 CFU/mL
- Change in Log10 CFU/mL From Inoculum (0 hr) ([2]; AKPN1159, 24 h): −6.33 Log10 CFU/mL
- Change in Log10 CFU/mL From Inoculum (0 hr) ([2]; AKPN1162, 2 h): −3.01 Log10 CFU/mL
- Change in Log10 CFU/mL From Inoculum (0 hr) ([2]; AKPN1162, 4 h): −3.58 Log10 CFU/mL
- Change in Log10 CFU/mL From Inoculum (0 hr) ([2]; AKPN1162, 6 h): −3.66 Log10 CFU/mL
- Change in Log10 CFU/mL From Inoculum (0 hr) ([2]; AKPN1162, 24 h): −6.48 Log10 CFU/mL
- MIC ([3]; AKP1162 (SHV-12, CTX-M-15)): 0.06 µg/mL (≈ 0.156 µM)
- MIC ([3]; AKPN1159 (SHV-12)): 0.03 µg/mL (≈ 0.0782 µM)
- MIC90 [4, 14]: 0.03 µg/mL (≈ 0.0782 µM)
- MIC ([5]; AECO1156 (CTXM-15, TEM-OSBL)): 0.03 µg/mL (≈ 0.0782 µM)
- MIC ([5]; AECO1157 (CTXM-15, TEM-OSBL)): 0.03 µg/mL (≈ 0.0782 µM)
- MIC ([5]; AECO1162 (CTX-M-14)): 0.03 µg/mL (≈ 0.0782 µM)
- MIC ([5]; AECO1166 (SHV-12)): 0.016 µg/mL (≈ 0.0417 µM)
- MIC50 [1]: 0.03 µg/mL (≈ 0.0782 µM)
- EUCAST % I ([1]; EUCAST 2016 criteria): 3.3%
- MIC90 [1]: 0.12 µg/mL (≈ 0.313 µM)
- Change in Log10 CFU/mL From Inoculum (0 hr) ([6]; AECO1156, 2 h): −3.41 Log10 CFU/mL
- Change in Log10 CFU/mL From Inoculum (0 hr) ([6]; AECO1156, 4 h): −4.08 Log10 CFU/mL
- Change in Log10 CFU/mL From Inoculum (0 hr) ([6]; AECO1156, 6 h): −5.69 Log10 CFU/mL
- Change in Log10 CFU/mL From Inoculum (0 hr) ([6]; AECO1156, 24 h): −5.69 Log10 CFU/mL
- Change in Log10 CFU/mL From Inoculum (0 hr) ([6]; AECO1157, 2 h): −3.49 Log10 CFU/mL
- Change in Log10 CFU/mL From Inoculum (0 hr) ([6]; AECO1157, 4 h): −4.98 Log10 CFU/mL
- Change in Log10 CFU/mL From Inoculum (0 hr) ([6]; AECO1157, 6 h): −4.38 Log10 CFU/mL
- Change in Log10 CFU/mL From Inoculum (0 hr) ([6]; AECO1157, 24 h): −5.98 Log10 CFU/mL
- Change in Log10 CFU/mL From Inoculum (0 hr) ([6]; AECO1162, 2 h): −2.91 Log10 CFU/mL
- Change in Log10 CFU/mL From Inoculum (0 hr) ([6]; AECO1162, 4 h): −3.42 Log10 CFU/mL
- Change in Log10 CFU/mL From Inoculum (0 hr) ([6]; AECO1162, 6 h): −4.39 Log10 CFU/mL
- Change in Log10 CFU/mL From Inoculum (0 hr) ([6]; AECO1162, 24 h): −6.08 Log10 CFU/mL
- Change in Log10 CFU/mL From Inoculum (0 hr) ([6]; AECO1166, 2 h): −4.17 Log10 CFU/mL
- Change in Log10 CFU/mL From Inoculum (0 hr) ([6]; AECO1166, 4 h): −6.08 Log10 CFU/mL
- Change in Log10 CFU/mL From Inoculum (0 hr) ([6]; AECO1166, 6 h): −6.08 Log10 CFU/mL
- Change in Log10 CFU/mL From Inoculum (0 hr) ([6]; AECO1166, 24 h): −6.08 Log10 CFU/mL
- bacterial CFU, bladder [7]: 3.75 log10 CFU
- bacterial CFU, kidneys [7]: 3.11 log10 CFU
- bacterial CFU, urine [7]: 3.25 log10 CFU

Molecule: O=C1CN(/N=C/c2ccc([N+](=O)[O-])o2)C(=O)N1 [Nitrofurantoin]
- MIC50 [1]: 16 µg/mL (≈ 67.2 µM)
- MIC90 [1]: 256 µg/mL (≈ 1070 µM)

Molecule: C[C@]1(Cn2ccnn2)[C@H](C(=O)O)N2C(=O)C[C@H]2S1(=O)=O [Tazobactam, tazobactam]
- MIC ([8]; AECL1065 (CTX-M-15)): > 64 µg/mL
- MIC ([8]; AECL1067 (CTX-M-3)): > 64 µg/mL
- MIC ([9]; AKOX1005 (SHV-2, TEM-1, DHA-1)): > 64 µg/mL
- MIC ([9]; AKOX1009 (CTX-M-15)): > 64 µg/mL
- MIC ([10]; ACFR1034 (CTX-M-15, TEM-OSBL)): > 64 µg/mL
- MIC ([10]; ACFR1035 (CTX-M-3, TEM-OSBL)): > 64 µg/mL
- MIC ([11]; AKPN1159 (SHV-12)): > 64 µg/mL
- MIC ([11]; AKPN1161 (SHV-7)): > 64 µg/mL
- MIC ([11]; AKPN1162 (CTX-M-15, SHV-12)): > 64 µg/mL
- MIC ([11]; AKPN1166 (CTX-M-14, SHV-12)): > 64 µg/mL
- MIC ([11]; AKPN1167 (SHV-2)): > 64 µg/mL
- MIC ([12]; AECO001 (no ESBL)): > 64 µg/mL
- MIC ([12]; AECO1078 (CTX-M-15)): > 64 µg/mL
- MIC ([12]; AECO1147 (CTX-M-15)): > 64 µg/mL
- MIC ([12]; AECO1157 (CTX-M-15, TEM-OSBL)): > 64 µg/mL
- MIC ([12]; AECO1159 (CTX-M-15)): > 64 µg/mL
- MIC ([12]; AECO1169 (CTX-M-1, TEM-OSBL)): > 64 µg/mL
- MIC ([12]; AECO1172 (CTX-M-14)): > 64 µg/mL
- MIC ([13]; AEAE1027 (CTX-M-14)): > 64 µg/mL
- MIC ([13]; AEAE1029 (CTX-M-15)): > 64 µg/mL

Molecule: CN(C)c1cc(NC(=O)CNC(C)(C)C)c(O)c2c1C[C@H]1C[C@H]3[C@H](N(C)C)C(O)=C(C(N)=O)C(=O)[C@@]3(O)C(O)=C1C2=O [Tigecycline]
- MIC90 ([4]; Escherichia coli): 0.25 µg/mL (≈ 0.427 µM)

Molecule: NC[C@H]1O[C@H](O[C@H]2[C@H](O)[C@@H](O[C@H]3O[C@H](CO)[C@@H](O)[C@H](N)[C@H]3O)[C@H](N)C[C@@H]2N)[C@H](N)C[C@@H]1O [Tobramycin]
- MIC90 [4, 14]: > 8 µg/mL

Molecule: NCC(=O)CCO [amino ketone metabolite of clavulanate]
- % of parent exposure (clinical): approximately 8.5%

Molecule: Colistin
- MIC90 [4, 15]: 0.25 µg/mL

Molecule: Gentamicin
- MIC90 [4, 15]: >8 µg/mL
